The source of these data is PubChem BioAssay AID298 (DTP/NCI, 2004).

Inconclusive results are not listed.

The subject of this test is MX-1 breast xenograft, intrarenal, nude mice, tumor weight. In words: NCI In Vivo Anticancer Drug Screen. Data for tumor model Human Mammary Carcinoma MX-1 Xenograft (intrarenal inoculation) in NU/NU BALB/C (nude) mice. The following applies: endpoint: mean tumor weight change, higher = larger tumour. In outline:
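Transplantable tumors established in mice; animals dosed with compound or vehicle; survival or tumor size then recorded. Result reported as treated (T) divided by vehicle control (C).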
(A xenograft is tissue or cells of one species grown in another, often human tumour cells in immunodeficient mice.)

The mark [1] stands for this setting: dose: 100.0 mg/kg/injection, schedule: Q04DX003 (ip), vehicle: saline with Tween-80.
[2] abbreviates: dose: 100.0 mg/kg/injection, schedule: Q04DX003 (ip), vehicle: suspension in saline.
[3] abbreviates: dose: 200.0 mg/kg/injection, schedule: Q04DX003 (ip), vehicle: suspension in saline.

For `CC(=O)OCC1OC([S-])C(OC(C)=O)C(OC(C)=O)C1OC(C)=O.CC[PH+](CC)CC.CC[PH+](CC)CC.[Au].[Au]` (stereo unspecified), the T/C is, setting by setting: (dose: 3.13 mg/kg/injection, schedule: Q04DX003 (ip), vehicle: Klucel (hydroxypropylcellulose) (HPC)) 110 % of control; (dose: 12.5 mg/kg/injection, schedule: Q04DX003 (ip), vehicle: Klucel (hydroxypropylcellulose) (HPC)) 73 % of control.
`CC(=O)C[n+]1ccccc1Sc1ccc(Cl)cc1`: the T/C (dose: 25.0 mg/kg/injection, schedule: Q04DX003 (ip), vehicle: saline with Tween-80) was 66 % of control; the T/C (dose: 50.0 mg/kg/injection, schedule: Q04DX003 (ip), vehicle: saline with Tween-80) is 64 % of control; the T/C under setting [1] was 89 % of control.
Take `CC1=C[P+](c2ccccc2)(c2ccccc2)C=C(c2ccccc2)O1`: the T/C (dose: 0.75 mg/kg/injection, schedule: Q04DX003 (ip), vehicle: saline) was 124 % of control.
Consider `COc1cc2c[n+](C)c3c4cc5c(cc4ccc3c2cc1OC)OCO5`, for which the T/C runs as follows: (dose: 25.0 mg/kg/injection, schedule: Q04DX003 (sc), vehicle: saline with Tween-80) 94 % of control; (dose: 50.0 mg/kg/injection, schedule: Q04DX003 (sc), vehicle: saline with Tween-80) 116 % of control; (dose: 100.0 mg/kg/injection, schedule: Q04DX003 (sc), vehicle: saline with Tween-80) 111 % of control; (dose: 200.0 mg/kg/injection, schedule: Q04DX003 (sc), vehicle: saline with Tween-80) 108 % of control.
In the case of `CN(N=O)C(=O)N[C@@H](C=O)[C@@H](O)[C@H](O)[C@H](O)CO`, the T/C is 193 % of control (dose: 37.0 mg/kg/injection, schedule: Q04DX003 (ip), vehicle: other); 117 % of control (dose: 75.0 mg/kg/injection, schedule: Q04DX003 (ip), vehicle: other); 70 % of control (dose: 150.0 mg/kg/injection, schedule: Q04DX003 (ip), vehicle: other); 63 % of control (dose: 150.0 mg/kg/injection, schedule: Q04DX003 (sc), vehicle: saline).
For `O=NN(CCCl)C(=O)NC1CCCCC1`, the T/C (dose: 4.0 mg/kg/injection, schedule: Q01DX010 (ip), vehicle: saline with Tween-80) was 303 % of control; the T/C (dose: 8.0 mg/kg/injection, schedule: Q01DX010 (ip), vehicle: saline with Tween-80) was 248 % of control; the T/C (dose: 8.0 mg/kg/injection, schedule: Q01DX010 (sc), vehicle: saline with Tween-80) was 71 % of control; the T/C (dose: 12.5 mg/kg/injection, schedule: Q04DX003 (sc), vehicle: Klucel (hydroxypropylcellulose) (HPC)) was 66 % of control; the T/C (dose: 13.33 mg/kg/injection, schedule: Q04DX003 (ip), vehicle: saline with Tween-80) was 105 % of control; the T/C (dose: 16.0 mg/kg/injection, schedule: Q01DX010 (ip), vehicle: saline with Tween-80) was 263 % of control. For the same compound, the T/C runs as follows: (dose: 16.0 mg/kg/injection, schedule: Q01DX010 (sc), vehicle: saline with Tween-80) 61 % of control; (dose: 25.0 mg/kg/injection, schedule: Q04DX003 (sc), vehicle: Klucel (hydroxypropylcellulose) (HPC)) 67 % of control; (dose: 26.65 mg/kg/injection, schedule: Q04DX003 (ip), vehicle: saline with Tween-80) 36 % of control; (dose: 26.66 mg/kg/injection, schedule: Q04DX003 (sc), vehicle: saline with Tween-80) 64 % of control; (dose: 32.0 mg/kg/injection, schedule: Q01DX010 (ip), vehicle: saline with Tween-80) 8 % of control; (dose: 32.0 mg/kg/injection, schedule: Q01DX010 (sc), vehicle: saline with Tween-80) 3 % of control. The T/C by setting is: (dose: 50.0 mg/kg/injection, schedule: Q04DX003 (sc), vehicle: Klucel (hydroxypropylcellulose) (HPC)) 31 % of control; (dose: 53.3 mg/kg/injection, schedule: Q04DX003 (ip), vehicle: saline with Tween-80) 42 % of control; (dose: 53.33 mg/kg/injection, schedule: Q04DX003 (sc), vehicle: saline with Tween-80) 31 % of control.
Turning to `CN(C)C(=O)Nc1ccc(Cl)cc1`, the T/C reads like this: (dose: 150.0 mg/kg/injection, schedule: Q04DX003 (ip), vehicle: suspension in saline) 71 % of control; (dose: 300.0 mg/kg/injection, schedule: Q04DX003 (ip), vehicle: suspension in saline) 98 % of control; (dose: 600.0 mg/kg/injection, schedule: Q04DX003 (ip), vehicle: suspension in saline) 91 % of control.
Take `COc1ccc([C@@]23Oc4cc(OC)cc(OC)c4[C@]2(O)[C@H](O)[C@H](C(=O)N(C)C)[C@H]3c2ccccc2)cc1`: the T/C is, setting by setting: (dose: 2.0 mg/kg/injection, schedule: Q04DX003 (ip), vehicle: Klucel (hydroxypropylcellulose) (HPC)) 92 % of control; (dose: 4.0 mg/kg/injection, schedule: Q04DX003 (ip), vehicle: Klucel (hydroxypropylcellulose) (HPC)) 79 % of control; (dose: 8.0 mg/kg/injection, schedule: Q04DX003 (ip), vehicle: Klucel (hydroxypropylcellulose) (HPC)) 79 % of control; (dose: 16.0 mg/kg/injection, schedule: Q04DX003 (ip), vehicle: Klucel (hydroxypropylcellulose) (HPC)) 88 % of control.
In the case of `CCCNC1=C(C)C(=O)C2=C(C1=O)[C@H](COC(N)=O)[C@]1(OC)[C@@H]3N[C@@H]3CN21`, the T/C (dose: 3.0 mg/kg/injection, schedule: Q04DX003 (sc), vehicle: saline) is 13 % of control; the T/C (dose: 6.0 mg/kg/injection, schedule: Q04DX003 (sc), vehicle: saline) is -77 % of control; the T/C (dose: 12.0 mg/kg/injection, schedule: Q04DX003 (sc), vehicle: saline) is -100 % of control.
Regarding `Clc1cccc(Cl)c1C(Nc1nncs1)Nc1nncs1`, the T/C is 94 % of control under setting [1]; 73 % of control (dose: 200.0 mg/kg/injection, schedule: Q04DX003 (ip), vehicle: saline with Tween-80); 44 % of control (dose: 400.0 mg/kg/injection, schedule: Q04DX003 (ip), vehicle: saline with Tween-80).
As for `CCC(/C=C/C1OC(=O)C=CC1C)=C\C(C)C/C=C/C(C)=C/C(C)C(=O)C(C)C(O)C(C)C/C(C)=C/C(=O)O` (stereo unspecified), the T/C reads like this: (dose: 1.0 mg/kg/injection, schedule: Q04DX003 (ip), vehicle: saline + alcohol) 114 % of control; (dose: 2.0 mg/kg/injection, schedule: Q04DX003 (ip), vehicle: saline + alcohol) 109 % of control; (dose: 4.0 mg/kg/injection, schedule: Q04DX003 (ip), vehicle: saline + alcohol) 71 % of control; (dose: 75.0 micrograms/kg/injection, schedule: Q04DX003 (ip), vehicle: saline + alcohol) 119 % of control; (dose: 150.0 micrograms/kg/injection, schedule: Q04DX003 (ip), vehicle: saline + alcohol) 114 % of control; (dose: 300.0 micrograms/kg/injection, schedule: Q04DX003 (ip), vehicle: saline + alcohol) 107 % of control. Further, for the setting “dose: 600.0 micrograms/kg/injection, schedule: Q04DX003 (ip), vehicle: saline + alcohol”, the T/C was 102 % of control.
Regarding `c1nnc(NCNc2nncs2)s1`, the T/C is 89 % of control (dose: 50.0 mg/kg/injection, schedule: Q04DX003 (ip), vehicle: suspension in saline); 59 % of control under setting [2]; 78 % of control under setting [3]; 65 % of control (dose: 400.0 mg/kg/injection, schedule: Q04DX003 (ip), vehicle: suspension in saline).
Consider `COC(=O)Nc1cn2cc(C(=O)c3cccs3)ccc2n1`, for which the T/C reads like this: (dose: 300.0 mg/kg/injection, schedule: Q04DX003 (sc), vehicle: Klucel (hydroxypropylcellulose) (HPC)) 70 % of control; (dose: 600.0 mg/kg/injection, schedule: Q04DX003 (sc), vehicle: Klucel (hydroxypropylcellulose) (HPC)) 74 % of control; (dose: 1200.0 mg/kg/injection, schedule: Q04DX003 (sc), vehicle: Klucel (hydroxypropylcellulose) (HPC)) 102 % of control; (dose: 2400.0 mg/kg/injection, schedule: Q04DX003 (sc), vehicle: Klucel (hydroxypropylcellulose) (HPC)) 96 % of control.
As for `CNC(=O)OCc1nc(SC)n(C)c1COC(=O)NC`, the T/C was -91 % of control (dose: 28.75 mg/kg/injection, schedule: Q04DX003 (ip), vehicle: saline); -85 % of control (dose: 57.5 mg/kg/injection, schedule: Q04DX003 (ip), vehicle: saline); -63 % of control (dose: 115.0 mg/kg/injection, schedule: Q04DX003 (ip), vehicle: saline).
Consider `CC(=O)Nc1ccc(Nc2ccc(C(=C3C=CC(=[N+](C)CCC#N)C=C3)c3ccc(N(C)CCC#N)cc3)cc2)cc1`, for which the T/C is 45 % of control (dose: 12.5 mg/kg/injection, schedule: Q04DX003 (ip), vehicle: saline); 80 % of control (dose: 25.0 mg/kg/injection, schedule: Q04DX003 (ip), vehicle: saline); 63 % of control (dose: 50.0 mg/kg/injection, schedule: Q04DX003 (ip), vehicle: saline); 97 % of control (dose: 100.0 mg/kg/injection, schedule: Q04DX003 (ip), vehicle: saline); 84 % of control under setting [2]; 45 % of control under setting [3].
